Assay results as given in ChEMBL document CHEMBL1139487, “Discovery of corticotropin releasing factor 2 receptor selective sauvagine analogues for treatment of skeletal muscle atrophy” (J Med Chem, 2005).

Key:
Mus musculus [1] = test: In vivo percentage inhibition against casting induced tibialis anterior mass loss in mouse at a dosage of 30 ug/kg/day; type: functional
[2] = molecular target: T1, Corticotropin-releasing factor receptor 1 (Mus musculus) (UniProt P35347); test: In vitro agonistic activity against mouse corticotropin releasing factor 1 receptor; type: functional
T1 sequence (whole entry): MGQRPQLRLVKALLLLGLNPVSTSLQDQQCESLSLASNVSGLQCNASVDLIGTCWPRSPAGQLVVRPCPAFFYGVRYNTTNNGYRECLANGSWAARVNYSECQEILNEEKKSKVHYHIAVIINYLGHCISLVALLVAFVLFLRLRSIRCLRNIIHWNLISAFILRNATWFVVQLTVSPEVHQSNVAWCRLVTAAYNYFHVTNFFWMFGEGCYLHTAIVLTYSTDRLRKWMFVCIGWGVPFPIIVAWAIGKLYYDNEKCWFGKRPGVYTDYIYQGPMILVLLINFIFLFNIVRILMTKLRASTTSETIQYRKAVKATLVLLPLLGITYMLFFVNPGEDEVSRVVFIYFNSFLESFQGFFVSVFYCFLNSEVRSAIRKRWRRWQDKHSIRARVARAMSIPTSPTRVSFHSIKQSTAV

Mus musculus [3] = test: In vivo percentage inhibition against casting induced tibialis anterior mass loss in mouse at a dosage of 100 ug/kg/day; type: functional
Mus musculus [4] = test: In vivo percentage inhibition against casting induced tibialis anterior mass loss in mouse at a dosage of 300 ug/kg/day; type: functional; conditions: read-out: Inhibition
[5] = molecular target: Corticotropin-releasing factor receptor 2 (Mus musculus) (UniProt Q60748); test: In vitro agonistic activity against mouse corticotropin releasing factor 2 receptor; type: functional
Mus musculus [6] = species: Mus musculus; test: Selectivity ratio of EC50s for mouse corticotropin releasing factor receptors 1 and 2
[7] = molecular target: T2, Corticotropin-releasing factor receptor 1 (Mus musculus, UniProt P35347); test: In vitro effective concentration for mouse corticotropin releasing factor 1 receptor
T2 sequence (P35347 whole entry): T1 sequence (whole entry)

[8] = molecular target: Corticotropin-releasing factor receptor 2 (Mus musculus, UniProt Q60748); test: In vitro effective concentration for mouse corticotropin releasing factor 2 receptor
Corticotropin-releasing factor receptor 2, sequence (Q60748 whole entry): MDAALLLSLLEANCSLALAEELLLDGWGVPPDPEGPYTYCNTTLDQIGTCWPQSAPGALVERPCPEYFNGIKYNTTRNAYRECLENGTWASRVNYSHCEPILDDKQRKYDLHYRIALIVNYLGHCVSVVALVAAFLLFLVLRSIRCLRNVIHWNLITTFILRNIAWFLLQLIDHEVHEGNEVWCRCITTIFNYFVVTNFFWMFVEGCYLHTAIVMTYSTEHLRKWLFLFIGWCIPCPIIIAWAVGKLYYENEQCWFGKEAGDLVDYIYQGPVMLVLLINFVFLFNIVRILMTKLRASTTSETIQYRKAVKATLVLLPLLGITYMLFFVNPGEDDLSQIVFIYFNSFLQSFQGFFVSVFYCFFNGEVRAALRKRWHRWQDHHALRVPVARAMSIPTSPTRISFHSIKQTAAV

Corticotropin-releasing factor receptor 2 (Mus musculus), sequence (Q60748 whole entry): as above

Emax [2] [%]	Emax [5] [%]	Selectivity (Mus musculus [6])	EC50 [7] [nM]	EC50 [8] [nM]	Compound	inhibition in vivo at 0.03 mg/kg/day (Mus musculus [1]) [%]	inhibition in vivo at 0.1 mg/kg/day (Mus musculus [3]) [%]	inhibition in vivo at 0.3 mg/kg/day (Mus musculus [4]) [%]
64	100	62	–	–	CC[C@H](C)[C@H](NC(=O)[C@@H](NC(=O)[C@H](CC(=O)O)NC(=O)[C@H](CC(C)C)NC(=O)[C@H](CC(C)C)NC(=O)[C@H](CC(C)C)NC(=O)[C@H](CCCN=C(N)N)NC(=O)[C@H](CC(N)=O)NC(=O)[C@H](CC(N)=O)NC(=O)[C@H](C)NC(=O)[C@H](C)NC(=O)[C@H](CCC(N)=O)NC(=O)[C@H](CCC(N)=O)NC(=O)[C@H](CCCCN)NC(=O)[C@H](CCC(=O)O)NC(=O)[C@H](CCCCN)NC(=O)[C@H](CCC(=O)O)NC(=O)[C@H](CCC(N)=O)NC(=O)[C@H](CCCCN)NC(=O)[C@H](CCC(=O)O)NC(=O)[C@@H](NC(=O)[C@H](CCC(=O)O)NC(=O)[C@@H](NC(=O)[C@H](CCSC)NC(=O)[C@H](CCCCN)NC(=O)[C@H](CCCN=C(N)N)NC(=O)[C@H](CC(C)C)NC(=O)[C@H](CC(C)C)NC(=O)[C@H](CCC(N)=O)NC(=O)[C@H](Cc1ccccc1)NC(=O)[C@@H]1CCCN1C(=O)[C@H](CC(C)C)NC(=O)[C@H](CC(=O)O)NC(=O)[C@@H](NC(=O)[C@H](CO)NC(=O)[C@@H](NC(=O)[C@@H]1CCCN1C(=O)[C@@H]1CCCN1C(=O)CNC(=O)[C@@H]1CCC(=O)N1)[C@@H](C)CC)[C@@H](C)CC)[C@@H](C)CC)[C@@H](C)CC)[C@@H](C)O)C(=O)O	58	46	50
48	82	> 55	> 1000	18.2	CC[C@H](C)[C@H](NC(=O)[C@@H](NC(=O)[C@H](CC(=O)O)NC(=O)[C@H](CC(C)C)NC(=O)[C@H](CC(C)C)NC(=O)[C@H](CC(C)C)NC(=O)[C@H](CCCN=C(N)N)NC(=O)[C@H](CC(N)=O)NC(=O)[C@H](CC(N)=O)NC(=O)[C@H](C)NC(=O)[C@H](C)NC(=O)[C@H](CCC(N)=O)NC(=O)[C@H](CCC(N)=O)NC(=O)[C@H](CCCCN)NC(=O)[C@H](CCC(=O)O)NC(=O)[C@H](CCCCN)NC(=O)[C@H](CCC(=O)O)NC(=O)[C@H](CCC(N)=O)NC(=O)[C@H](CCCCN)NC(=O)[C@H](CCC(=O)O)NC(=O)[C@@H](NC(=O)[C@H](CCC(=O)O)NC(=O)[C@@H](NC(=O)[C@H](CCSC)NC(=O)[C@H](CCCCN)NC(=O)[C@H](CCCN=C(N)N)NC(=O)[C@H](CC(C)C)NC(=O)[C@H](CC(C)C)NC(=O)[C@H](Cc1ccc(O)cc1)NC(=O)[C@@H](NC(=O)[C@@H]1CCCN1C(=O)[C@H](CC(C)C)NC(=O)[C@H](CC(=O)O)NC(=O)[C@@H](NC(=O)[C@H](CO)NC(=O)[C@@H](NC(=O)[C@@H]1CCCN1C(=O)[C@@H]1CCCN1C(=O)CNC(=O)[C@@H]1CCC(=O)N1)[C@@H](C)CC)[C@@H](C)CC)[C@@H](C)O)[C@@H](C)CC)[C@@H](C)CC)[C@@H](C)O)C(=O)O	3	25	59
